The source of these data is patent publication US8629112B2, “Template-fixed peptidomimetics with CXCR7 modulating activity” (priority 2010, dated 2014).

Square brackets hold non-standard residues; d marks the D form. Peptide text beside a SMILES is read from it. Oic = O=C(O)[C@@H]1C[C@@H]2CCCC[C@@H]2N1; 1Nal = N[C@@H](Cc1cccc2ccccc12)C(=O)O; 2Nal = N[C@@H](Cc1ccc2ccccc2c1)C(=O)O; His(π-Me) = Cn1cncc1C[C@H](N)C(=O)O; Tic = O=C(O)[C@@H]1Cc2ccccc2CN1; Aze = O=C(O)[C@@H]1CCN1; Abu = CC[C@H](N)C(=O)O

In the test the target is T1, CXCR7 (Homo sapiens, UniProt P25106).
T1 construct: host or cells: CHO (PathHunter CHO-CXCR7 β-arrestin cells)
T1 sequence (P25106 whole entry): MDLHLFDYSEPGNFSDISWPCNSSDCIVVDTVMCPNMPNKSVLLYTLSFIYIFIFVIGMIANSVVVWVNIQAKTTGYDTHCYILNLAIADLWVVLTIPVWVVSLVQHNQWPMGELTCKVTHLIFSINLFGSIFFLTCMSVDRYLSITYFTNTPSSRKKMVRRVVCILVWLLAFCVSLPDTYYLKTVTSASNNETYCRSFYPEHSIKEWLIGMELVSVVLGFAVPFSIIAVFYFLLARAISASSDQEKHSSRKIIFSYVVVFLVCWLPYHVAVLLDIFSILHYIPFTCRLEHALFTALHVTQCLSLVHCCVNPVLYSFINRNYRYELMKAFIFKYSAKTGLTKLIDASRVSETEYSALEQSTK
Briefly: CXCR7 β-arrestin recruitment assay (PathHunter CHO-CXCR7, agonistic assay). To be noted: CHO CXCR7 β-arrestin cells, agonistic assay, 90 min at 37° C., chemiluminescence; read-out: β-Arrestin EC50. Type of test: cell-based. How it is done:
Lyophilized peptides were weighed on a Microbalance (Mettler MX5) and dissolved in DMSO to a final concentration of 10 mM unless otherwise stated. Stock solutions were kept at +4° C., and protected from light.
2.2 CXCR7 β-Arrestin Recruitment Assay
The PathHunter CHO-CXCR7 (DiscoverX) assay was performed according to the manufacturer's protocol. In brief, CHO CXCR7 β-arrestin cells were seeded at a density of 5000 cells per well in 40 μl of F12 medium in a 96-half volume well black culture plate and incubated overnight at 37° C. in a humidified atmosphere with 5% CO2. The next day, serial dilutions of PEM compounds have been prepared in DMSO and subsequently diluted in HBSS buffer containing 0.1% BSA.
For agonistic assay, 10 μl of compound solution or a solution of stromal cell-derived factor-1 (SDF-1) as positive control was added to the cells with a final DMSO concentration of 1% (v/v). The plate was incubated for 90 min at 37° C. in 5% CO2 incubator with gentle shaking (300 rpm) before addition of 40 ul of detection reagent per well. Reaction was developed 90 min at room temperature in the dark with shaking, and chemiluminescence was measured with a Topcount (Perkin Elmer) luminescence counter.
(In general: Recruitment of arrestin is a read-out of receptor activation apart from second messengers.)
As to `CC[C@H](C)[C@@H]1NC(=O)[C@@H]2Cc3ccccc3CN2C(=O)[C@H]2CCCN2C(=O)[C@H](CCCNC(=N)N)NC(=O)[C@H](Cc2c[nH]c3ccccc23)NC(=O)[C@@H](Cc2c[nH]cn2)NC1=O` [compound 32, cyclo(-Ile-^DHis-Trp-Arg-^DPro-Tic-)] (cyclo(I[dH]WR[dP][Tic])), the EC50 worked out at 0.0708 ± 0.0143 µM. As for `CC[C@H](C)[C@@H]1NC(=O)[C@H](Cc2c[nH]c3ccccc23)NC(=O)[C@@H](CCCNC(=N)N)NC(=O)[C@H](Cc2c[nH]c3ccccc23)NC(=O)[C@@H]2CCN2C(=O)[C@H]2CCCN2C1=O` [compound 46, cyclo(-Trp-^DArg-Trp-Ile-^DPro-Azt-)] (cyclo([Aze]W[dR]WI[dP])), the EC50 came out at 0.208 ± 0.0502 µM.

As for `N=C(N)NCCC[C@H]1NC(=O)[C@H](Cc2c[nH]c3ccccc23)NC(=O)[C@@H]2Cc3ccccc3CN2C(=O)[C@H]2CCCN2C(=O)[C@H](Cc2c[nH]c3ccccc23)NC(=O)[C@H](Cc2c[nH]cn2)NC1=O` [compound 38, cyclo(-Trp-^DArg-His-Trp-^DPro-Tic-)] (cyclo(HW[dP][Tic]W[dR])), the EC50 was 0.217 ± 0.0125 µM. For `N=C(N)NCCC[C@@H]1NC(=O)[C@H](Cc2c[nH]c3ccccc23)NC(=O)[C@@H](Cc2ccccc2)NC(=O)[C@H](Cc2cccc3ccccc23)NC(=O)[C@@H]2Cc3ccccc3CN2C(=O)[C@H]2CCCN2C1=O` [compound 7, cyclo(-1Nal-^DPhe-Trp-Arg-^DPro-Tic-)] (cyclo([1Nal][dF]WR[dP][Tic])) the value was 0.0616 ± 0.0016 µM; for `CC[C@H](C)[C@@H]1NC(=O)[C@@H](Cc2c[nH]cn2)NC(=O)[C@H](Cc2c[nH]c3ccccc23)NC(=O)[C@@H]2CCN2C(=O)[C@H]2CCCN2C(=O)[C@H](CCCNC(=N)N)NC1=O` [compound 47, cyclo(-Trp-^DHis-Ile-Arg-^DPro-Azt-)] (cyclo([Aze]W[dH]IR[dP])), 0.3445 ± 0.0006 µM.

Regarding `CC[C@H](C)[C@@H]1NC(=O)[C@@H](CCCNC(=N)N)NC(=O)[C@H]([C@@H](C)CC)NC(=O)[C@@H]2Cc3ccccc3CN2C(=O)[C@H]2CCCN2C(=O)[C@H](CCCNC(=N)N)NC1=O` [compound 33, cyclo(-Ile-^DArg-Ile-Arg-^DPro-Tic-)] (cyclo(IR[dP][Tic]I[dR])), the EC50 was 0.0343 ± 0.0036 µM.

Regarding `CC[C@H](C)[C@@H]1NC(=O)[C@@H](CCCNC(=N)N)NC(=O)[C@H](Cc2cccc3ccccc23)NC(=O)[C@@H]2CCN2C(=O)[C@H]2CCCN2C(=O)[C@H](CCCNC(=N)N)NC1=O` [compound 43, cyclo(-1Nal-^DArg-Ile-Arg-^DPro-Azt-)] (cyclo([1Nal][dR]IR[dP][Aze])), the EC50 came out at 0.0412 ± 0.0083 µM.

As for `CC[C@H](C)[C@@H]1NC(=O)[C@@H](Cc2c[nH]cn2)NC(=O)[C@H](Cc2cccc3ccccc23)NC(=O)[C@@H]2Cc3ccccc3CN2C(=O)[C@H]2CCCN2C(=O)[C@H](CCCNC(=N)N)NC1=O` [compound 29, cyclo(-1Nal-^DHis-Ile-Arg-^DPro-Tic-)] (cyclo([1Nal][dH]IR[dP][Tic])), the EC50 is 0.347 ± 0.11 µM.

As for `N=C(N)NCCC[C@@H]1NC(=O)[C@@H]2Cc3ccccc3CN2C(=O)[C@H]2CCCN2C(=O)[C@H](CCCNC(=N)N)NC(=O)[C@H](Cc2c[nH]c3ccccc23)NC(=O)[C@@H](Cc2c[nH]cn2)NC1=O` [compound 36, cyclo(-Arg-^DHis-Trp-Arg-^DPro-Tic-)] (cyclo(R[dH]WR[dP][Tic])), the EC50 worked out at 0.144 ± 0.136 µM.

With `N=C(N)NCCC[C@@H]1NC(=O)[C@H](Cc2ccccc2)NC(=O)[C@@H](Cc2ccccc2)NC(=O)[C@H](Cc2c[nH]c3ccccc23)NC(=O)[C@@H]2Cc3ccccc3CN2C(=O)[C@H]2CCCN2C1=O` [compound 15, cyclo(-Trp-^DPhe-Phe-Arg-^DPro-Tic-)] (cyclo(FR[dP][Tic]W[dF])), the EC50 is 0.0757 ± 0.0415 µM. For `N=C(N)NCCC[C@@H]1NC(=O)[C@H](Cc2ccc3ccccc3c2)NC(=O)[C@@H](Cc2ccccc2)NC(=O)[C@H](Cc2c[nH]c3ccccc23)NC(=O)[C@@H]2Cc3ccccc3CN2C(=O)[C@H]2CCCN2C1=O` [compound 17, cyclo(-Trp-^DPhe-2Nal-Arg-^DPro-Tic-)] (cyclo([2Nal]R[dP][Tic]W[dF])) the value was 0.0169 ± 0.0073 µM. The result for `N=C(N)NCCC[C@@H]1NC(=O)[C@H](Cc2ccc(O)cc2)NC(=O)[C@@H](Cc2ccccc2)NC(=O)[C@H](Cc2c[nH]c3ccccc23)NC(=O)[C@@H]2Cc3ccccc3CN2C(=O)[C@H]2CCCN2C1=O` [compound 16, cyclo(-Trp-^DPhe-Tyr-Arg-^DPro-Tic-)] (cyclo(R[dP][Tic]W[dF]Y)) reads 0.326 ± 0.0998 µM; that for `CC[C@H](C)[C@@H]1NC(=O)[C@@H](Cc2ccccc2)NC(=O)[C@H](Cc2c[nH]c3ccccc23)NC(=O)[C@@H]2Cc3ccccc3CN2C(=O)[C@H]2CCCN2C(=O)[C@H](CCCNC(=N)N)NC1=O` [compound 18, cyclo(-Trp-^DPhe-Ile-Arg-^DPro-Tic-)] (cyclo(IR[dP][Tic]W[dF])), 0.148 ± 0.0968 µM.

For `CC[C@H](C)[C@@H]1NC(=O)[C@@H](CCCNC(=N)N)NC(=O)[C@H](Cc2c[nH]c3ccccc23)NC(=O)[C@@H]2CCN2C(=O)[C@H]2CCCN2C(=O)[C@H](CCCNC(=N)N)NC1=O` [compound 50, cyclo(-Trp-^DArg-Ile-Arg-^DPro-Azt-)] (cyclo([Aze]W[dR]IR[dP])), the EC50 came out at 0.0477 ± 0.0219 µM. `N=C(N)NCCC[C@@H]1NC(=O)[C@H](Cc2c[nH]c3ccccc23)NC(=O)[C@@H](Cc2ccccc2)NC(=O)[C@H](Cc2c[nH]c3ccccc23)NC(=O)[C@@H]2C[C@@H]3CCCC[C@@H]3N2C(=O)[C@H]2CCCN2C1=O` [Ex. 26, cyclo(-Trp-^DPhe-Trp-Arg-^DPro-Oic-)] (cyclo([Oic]W[dF]WR[dP])): the EC50 was 0.0008 ± 0.0005 µM. With `N=C(N)NCCC[C@@H]1NC(=O)[C@H](Cc2c[nH]c3ccccc23)NC(=O)[C@@H](Cc2ccccc2)NC(=O)[C@H](Cc2c[nH]c3ccccc23)NC(=O)[C@@H]2Cc3ccccc3CN2C(=O)[C@H]2CCCN2C1=O` [compound 9, cyclo(-Trp-^DPhe-Trp-Arg-^DPro-Tic-)] (cyclo(R[dP][Tic]W[dF]W)), the EC50 amounted to 0.0048 ± 0.0044 µM. For `C[C@@H]1NC(=O)[C@@H]2Cc3ccccc3CN2C(=O)[C@H]2CCCN2C(=O)[C@H](CCCNC(=N)N)NC(=O)[C@H](Cc2c[nH]c3ccccc23)NC(=O)[C@@H](Cc2ccccc2)NC1=O` [Ex. 1, cyclo(-Ala-^DPhe-Trp-Arg-^DPro-Tic-)] (cyclo(A[dF]WR[dP][Tic])) the value was 0.163 ± 0.0409 µM. Turning to `NCCCC[C@@H]1NC(=O)[C@H](Cc2c[nH]c3ccccc23)NC(=O)[C@@H](Cc2ccccc2)NC(=O)[C@H](Cc2c[nH]c3ccccc23)NC(=O)[C@@H]2Cc3ccccc3CN2C(=O)[C@H]2CCCN2C1=O` [compound 20, cyclo(-Trp-^DPhe-Trp-Lys-^DPro-Tic-)] (cyclo(K[dP][Tic]W[dF]W)), the EC50 worked out at 0.0165 ± 0.008 µM. Regarding `O=C1N[C@@H](Cc2ccc(O)cc2)C(=O)N2CCC[C@@H]2C(=O)N2Cc3ccccc3C[C@H]2C(=O)N[C@@H](Cc2c[nH]c3ccccc23)C(=O)N[C@H](Cc2ccccc2)C(=O)N[C@H]1Cc1c[nH]c2ccccc12` [compound 24, cyclo(-Trp-^DPhe-Trp-Tyr-^DPro-Tic-)] (cyclo([Tic]W[dF]WY[dP])), the EC50 turned out to be 0.0945 ± 0.0541 µM.

As for `N=C(N)NCCC[C@@H]1NC(=O)[C@H](Cc2c[nH]c3ccccc23)NC(=O)[C@@H](Cc2c[nH]c3ccccc23)NC(=O)[C@H](Cc2c[nH]c3ccccc23)NC(=O)[C@@H]2Cc3ccccc3CN2C(=O)[C@H]2CCCN2C1=O` [Ex. 10, cyclo(-Trp-^DTrp-Trp-Arg-^DPro-Tic-)] (cyclo(R[dP][Tic]W[dW]W)), the EC50 stood at 0.0649 ± 0.113 µM.

For `N=C(N)NCCC[C@@H]1NC(=O)[C@H](Cc2c[nH]c3ccccc23)NC(=O)[C@@H](Cc2ccccc2)NC(=O)[C@H](Cc2ccccc2)NC(=O)[C@@H]2Cc3ccccc3CN2C(=O)[C@H]2CCCN2C1=O` [Ex. 2, cyclo(-Phe-^DPhe-Trp-Arg-^DPro-Tic-)] (cyclo(F[dF]WR[dP][Tic])), the EC50 is 0.0225 ± 0.0137 µM. As for `Cn1cncc1C[C@@H]1NC(=O)[C@@H]2Cc3ccccc3CN2C(=O)[C@H]2CCCN2C(=O)[C@H](CCCNC(=N)N)NC(=O)[C@H](Cc2c[nH]c3ccccc23)NC(=O)[C@@H](Cc2ccccc2)NC1=O` [Ex. 4, cyclo(-His(Me)-^DPhe-Trp-Arg-^DPro-Tic-)] (cyclo([His(π-Me)][dF]WR[dP][Tic])), the EC50 was 0.0325 ± 0.0039 µM. The result for `CC[C@@H]1NC(=O)[C@@H]2Cc3ccccc3CN2C(=O)[C@H]2CCCN2C(=O)[C@H](Cc2c[nH]c3ccccc23)NC(=O)[C@H](CCCNC(=N)N)NC(=O)[C@@H](CCCNC(=N)N)NC1=O` [compound 30, cyclo(-Abu-^DArg-Arg-Trp-^DPro-Tic-)] (cyclo([Abu][dR]RW[dP][Tic])) reads 0.0975 ± 0.0063 µM; that for `N=C(N)NCCC[C@@H]1NC(=O)[C@H](Cc2c[nH]c3ccccc23)NC(=O)[C@@H](Cc2ccccc2)NC(=O)[C@H](Cc2c[nH]cn2)NC(=O)[C@@H]2Cc3ccccc3CN2C(=O)[C@H]2CCCN2C1=O` [compound 3, cyclo(-His-^DPhe-Trp-Arg-^DPro-Tic-)] (cyclo(H[dF]WR[dP][Tic])), 0.0321 ± 0.0039 µM.

A word on the EC50: it is the midpoint of the concentration-response curve.
